Peptide text beside a SMILES is read from it.

One data set has as its system LNCaP cell xenografts. Kind of data set: LNCaP cell xenografts in nude male mice. To be noted: peptide intraperitoneally on alternate days, LNCaP xenograft mice; data not shown.
Another data set deals with MCF-7 cell xenografts. In words: MCF-7 cell xenografts in nude male mice. To be noted: peptide intraperitoneally on alternate days, MCF-7 xenograft mice; data not shown.
Data set [1] concerns Cyclin D1. In words: Androgen-induced cyclin D1 expression, western blot in MCF-7 and LNCaP cells. The data set is classed as cell-based, human. A general note: In western blotting, separated proteins are transferred to a membrane and probed.
Description: Inhibition of androgen-induced cyclin D1 expression by AR-derived Src-SH3 binder peptide (SEQ.ID NO.1). Quiescent MCF-7 and LNCaP cells were left untreated or treated for 8 hrs with 10 nM R1881 alone or in the presence of 5 μM PI3-kinase inhibitor LY294,002 or 1 nM AR-derived SH3 binder or the shuffled sequence of peptide SEQ.ID NO.1 (SEQ.ID. NO.7). Protein from cell lysates were resolved on SDS-PAGE, then transferred to nitrocellulose filters. […] Lanes 1: unstimulated cells; lanes 2: R1881 treated cells; lanes 3: cells treated with R1881 in the presence of LY294,002 (LY); lanes 4: cells treated with R1881 in the presence of AR-derived (SH3-binder) peptide (SH3); lane 5: cells treated with R1881 in the presence of the shuffled sequence of peptide SEQ.ID NO.1 (Ss).
To verify this possibility, SH3 binder peptide (SEQ.ID NO.1) is added to MCF-7 and LNCaP cells stimulated with the androgen. MCF-7 and LNCaP cells are routinely grown as described above. Cells are then kept for at least 4 days in red phenol-free medium supplemented as described above and added with dextran-coated charcoal treated fetal calf serum to minimize steroid concentration.
Data set [2] relates to Cyclin D1. In words: Estrogen-induced cyclin D1 expression, western blot in MCF-7 and LNCaP cells. The data set is classed as cell-based, human.
Description: Quiescent MCF-7 and LNCaP cells were left untreated or treated for 8 hrs with 10 nM 17β estradiol alone or in the presence of 5 μM PI3-Kinase inhibitor LY294,002 or 1 nM of the SH3 binder or the shuffled sequence of peptide SEQ.ID NO.1 (SEQ.ID NO.7). Protein from cell lysates were resolved on SDS-PAGE, then transferred to nitrocellulose filters. […] Lanes 1: unstimulated cells; lanes 2: estradiol treated cells; lanes 3: cells treated with estradiol in the presence of LY294,002 (LY); lane 4: cells treated with estradiol in the presence of SH3-binder peptide (SH3); lane 5: cells treated with estradiol in the presence of the shuffled sequence of peptide SEQ.ID NO.1 (Ss).
To test the effect of SH3 binder peptide (SEQ.ID NO.1) on estrogen stimulated Cyclin D1 expression, this peptide is added to LNCaP and MCF-7 cells stimulated with 10 nM 17β-estradiol (FIG. 3B). MCF-7 and LNCaP cells are routinely grown as reported above. Cells are then kept for at least 4 days in red phenol-free medium supplemented as described above and added with dextran-coated charcoal treated fetal calf serum to minimize steroid contamination.
Data set [3] relates to LNCaP cells. In words: BrdU incorporation (DNA synthesis), R1881-stimulated LNCaP cells. To be noted: for residual BrdU incorporation: R1881 alone 54%, untreated 20%. The data set is classed as cell-based, human. For orientation: Dividing cells build labelled thymidine or BrdU into new DNA.
In data set [4] the test system is MCF-7 cells. In words: BrdU incorporation (DNA synthesis), estradiol-stimulated MCF-7 cells. The data set is classed as cell-based, human. To be noted: 24 hrs. The procedure: (§1) DNA synthesis is assayed in single cells by a 6 h pulse with 100 μM (final concentration) BrdU (Boeheringer). Cells on coverslips are fixed, and incubated with diluted (1:1 in PBS) fluorescein-conjugated mouse anti-BrdU mAbs (clone BMC9318 from Boheringer Mannheim Co., IN), then washed three times with PBS. […] All coverslips are washed three times in PBS, inverted and mounted in Moviol (Calbiochem, CA) on glass slides. Slides are analyzed using an Axiophot fluorescent microscope (Zeiss).

The test system of data set [5] is LNCaP cells. Kind of data set: BrdU incorporation (DNA synthesis), EGF-stimulated LNCaP cells. The data set is classed as cell-based, human. To be noted: 24 hrs. On the procedure: FIG. 1C. DNA synthesis inhibition of EGF-stimulated human prostate cancer cells by SH3 binder peptide modeled from AR (SEQ. ID NO.1). LNCaP cells were grown in phenol red-free medium added with charcoal-treated serum as previously described and treated for 24 hrs with 100 ng/ml EGF alone or in the presence of a 10 μM of the anti-estrogen ICI 182,780 or 1 nM of the AR-derived (SH3-binder) peptide (SEQ.ID NO.1) or the shuffled sequence of peptide SEQ.ID NO.1 (SEQ.ID NO.7). At the end of the growth factor treatment BrdU incorporation in the cells untreated (control) or treated with EGF alone (EGF) or in the presence of ICI 182,780 (ICI) or the SH3-binder (SH3) or the shuffled sequence of peptide SEQ.ID NO.1 (Ss) was assayed. Data are reported as percentage of cells incorporating BrdU.
(§2) The peptide SEQ.ID NO.1 is finally assayed for its ability to reduce or inhibit EGF induced DNA synthesis in human prostate cancer LNCaP (1C) and MCF-7 (1D) cells. The LNCaP and MCF-7 cells are cultured as described above, then seeded onto coverslips. Cells are then stimulated with 100 ng/ml of highly purified EGF (Boheringer, Calif.) in the absence or in presence of 1 nM peptide SEQ.ID NO.1.
as §1

Data set [6] deals with MCF-7 cells. In words: BrdU incorporation (DNA synthesis), EGF-stimulated MCF-7 cells. To be noted: 24 hrs. The data set is classed as cell-based, human. On the procedure:
FIG. 1D. […] MCF-7 cells were grown in phenol red-free medium added with charcoal-treated serum as previously described and treated for 24 hrs with 100 ng/ml EGF alone or in the presence of a 10 μM of the anti-estrogen ICI 182,780 or 1 nM of the AR-derived (SH3-binder) peptide or the shuffled sequence of peptide SEQ ID NO.1 (SEQ.ID. NO.7). At the end of the growth factor treatment, BrdU incorporation in the cells untreated (control) or treated with EGF alone (EGF) or in the presence of ICI 182,780 (ICI) or SH3-binder (SH3) or shuffled sequence of peptide SEQ.ID NO.1 (Ss) was assayed. Data are reported as percentage of cells incorporating BrdU.
as §2, §1

The next data set deals with T1, AR association with Src (Homo sapiens, UniProt P12931).
T1 construct: Cell lysates are submitted to immuno-precipitation using mouse monoclonal anti-Src antibodies; endogenous in cells; host or cells: LNCaP
Kind of data set: Androgen-stimulated AR association with Src, anti-Src co-immunoprecipitation in LNCaP cells. The data set is classed as cell-based.

The target in another data set is T2, ER association with Src (Homo sapiens, UniProt P12931).
T2 construct: Cell lysates are submitted to immunoprecipitation using mouse monoclonal anti-Src antibodies; endogenous in cells; host or cells: MCF-7
In words: Estrogen-stimulated ER/AR association with Src, anti-Src co-immunoprecipitation in MCF-7 cells. The data set is classed as cell-based.

The next data set relates to androgen receptor. Kind of data set: ARE luciferase reporter gene transcription in LNCaP cells. The data set is classed as cell-based, human. (Reporter assays use an easily measured gene product as a stand-in for the process of interest.)
Setting [7] is: 1 nM peptide with 10 nM R1881, 24 hrs.
Where [8] appears, read: 1 nM peptide with 10 nM 17β estradiol.

Description for ER association with Src: Human breast cancer MCF-7 cells were left unstimulated or stimulated for 2 min with 10 nM 17β estradiol alone or in the presence of a 1000 fold excess of ICI 182,780 or 1 nM of the SH3 binder peptide or the shuffled sequence of peptide SEQ.ID NO.1 (SEQ.ID NO.7). Cell lysates were incubated with anti-Src antibodies, immunoprecipitated proteins were resolved on SDS-PAGE and transferred onto nitrocellulose filters. Filters were then blotted with either anti-Src or anti-human AR antibodies to detect AR associated with Src.
Cells are suspended in 1 ml of lysis buffer: 50 mM Tris-HCl, pH 7.40, containing 5 mM MgCl2, 150 mM NaCl, 0.5% Triton X-100 and left under gentle shaking for 2 min, at 4° C. Suspensions are then centrifuged at about 800 g for 30 min and supernatant collected and used for immunoprecipitation.
To address this point mammary cancer derived MCF-7 cells are grown in 5% CO2 in air in DMEM medium (GIBCO) supplemented with phenol-red, 2 mM L-glutamine (GIBCO), penicillin (100 U/ml), gentamicin (50 μl/ml), hydrocortisone (3.75 ng/ml) insulin (0.2 U.I./ml) and 5% fetal calf serum. The cells are then kept in DMEM without phenol red and supplemented with glutamine, penicillin, gentamicin and insulin as above and containing 5% charcoal-stripped fetal calf serum for additional 4 days. […]
Description for LNCaP cell xenografts: LNCaP prostate cancer cells were grown subcutaneously in nude male mice. After tumor reached the size of 200-400 mm^3, mice were treated with intra-peritoneal injection of 200 μl of control (ctrl) solution (circles) or the same solution containing 2 μM of SH3 (SH3) binder peptide SEQ.ID NO.1 (squares). Treatment started at beginning of week 0 and peptides were given in alternate days for 4 weeks, using 5 animals per group.
At the end of the treatment, tumor specimens were assayed for Ki-67 antigen expression and apoptosis.
LNCaP cancer cells, grown under routine conditions above described, are suspended in 50% (vol/vol) Matrigel solution in sterile PBS (pH 7.4) and injected subcutaneously in the dorsal posterior region at 2.5×10^6 cells/male athymic mice (CD mice, Charles-River) without hormone priming.
The treatment is initiated with tumors at approximately 200-400 mm^3 in size. Tumor volumes of LNCaP cells xenografts with or without treatments are measured by a caliper and recorded according to the formula D×d^2×0.5, where D is the length and d is the width of tumor.
For peptide treatment of each animal, 200 μl of 20 nM SH3 binder-peptide SEQ. […]
At the end of treatment the animals are sacrificed and tumor specimens are assayed for Ki67 antigen and apoptotic cells. […] TUNEL positive cells are detected with diamino-benzidine and H2O2 according to the supplier's instructions. […]
Description for MCF-7 cell xenografts: MCF-7 human breast cancer cells were grown subcutaneously in nude male mice. When tumors were about 1000 mm^3 in size, mice were treated with intraperitoneal injection of 200 μl of control solution (ctrl, circles) or 200 μl of the same solution containing 2 μM of the SH3 binder peptide SEQ.ID NO.1 (SH3, squares). Treatment started at beginning of week 0 and peptides were given in alternate days for 5 weeks, using 5 animals per group
MCF-7 cells xenografts in male nude mice are the same as the one used in the experiment of FIG. 5B. At the end of treatment tumor specimens were assayed for Ki-67 antigen expression and apoptosis.
In this case MCF-7 cells, previously grown as described above, are suspended in 50% Matrigel (vol/vol) solution in sterile PBS and injected subcutaneously at 2.5×10^6 cells/animal in athymic male mice. […] Tumor volumes of MCF-7 cancer cell xenograft with or without treatment are measured and recorded as reported above.
At the end of treatment the animals are sacrificed and tumor specimens are assayed for Ki67 antigen and apoptotic cells. […] The level of concordance, expressed as the percentage of agreement between the observers, is 92%. […] TUNEL positive cells are detected with diamino-benzidine and H2O2 according to the supplier's instructions. […] The level of concordance, expressed as the percentage of agreement between the observers, is 100%.
Description for androgen receptor: LNCaP cells were transfected with a reporter gene encoding the luciferase gene under the control of an androgen responsive element (ARE 3416) (Castoria et al., 2003). Six hrs after transfection, cells were kept for further 24 hrs in the absence or in presence of 10 nM R1881 alone or with a 1000 fold excess of Casodex or with 1 nM SH3 binder peptide (SEQ.ID NO.1) or 1 nM shuffled sequence of peptide SEQ.ID NO.1 (SEQ.ID. NO.7). Luciferase activity was then assayed in cell lysates. Bar1: unstimulated cells; Bar 2: R1881 treated cells; Bar 3: cells treated with R1881 in the presence of Casodex (Cdx); Bar 4: cells treated with R1881 in the presence of the SH3 binder peptide (SH3); Bar 5: cells treated with R1881 in the presence of the shuffled sequence of peptide SEQ.ID NO.1 (Ss).
LNCaP cells, kept in 5% CO2 in air in RPMI 1640 medium (GIBCO) supplemented with phenol-red, 2 mM L-glutamine (GIBCO), penicillin (100 U/ml), gentamicin (50 μl/ml), insulin and 10% fetal calf serum, are transfected with a reporter gene engineered in a pSG5 expression vector with the luciferase gene under the control of an androgen responsive element (ARE3416) (Verrijdt et al., 2000). […]

As to `CC[C@H](C)[C@H](NC(=O)[C@H](CCCNC(=N)N)NC(=O)[C@H](C)NC(=O)[C@H](Cc1c[nH]cn1)NC(=O)[C@@H]1CCCN1C(=O)[C@H](Cc1c[nH]cn1)NC(=O)[C@@H]1CCCN1C(=O)[C@@H]1CCCN1C(=O)[C@@H]1CCCN1C(C)=O)C(=O)N[C@@H](CCCCN)C(N)=O` [SEQ.ID NO.1, Ac-Pro-Pro-Pro-His-Pro-His-Ala-Arg-Ile-Lys-NH2] (Ac-PPPHPHARIK-NH2), the “weight of mice vs vehicle” value in the data set with LNCaP cell xenografts and in the data set with MCF-7 cell xenografts was “No difference” throughout.

Take `O=c1cc(N2CCOCC2)oc2c(-c3ccccc3)cccc12` [LY 294,002]: the “hormone stimulated cyclin expression” value in the data set on Cyclin D1 [1] (5 μM with 10 nM R1881, MCF-7 and LNCaP) is “abolishes”; in the data set on Cyclin D1 [2] (5 μM with 10 nM 17β estradiol), “abolishes”.

For the compound “Ac-His-Pro-Lys-Pro-Ala-Arg-Ile-Pro-His-Pro-NH2 (Ac-HPKPARIPHP-NH2) [SEQ.ID NO.7]”, the “residual BrdU incorporation” value in the data set with LNCaP cells [3] (setting [7]) is given as 48%. Also, the “effect on estrogen-induced DNA synthesis” value in the data set with MCF-7 cells [4] (setting [8]) is listed as “not significant effect”. The “BrdU incorporation (residual)” value in the data set with LNCaP cells [5] (1 nM peptide with 100 ng/ml EGF, EGF alone 21%, untreated 8%) came to 15%; with MCF-7 cells [6] (1 nM peptide with 100 ng/ml EGF, EGF alone 36%, untreated 6%) it was 48%. For the same compound, in the data set with AR association with Src (1 nM peptide with 10 nM R1881, 2 min), the “hormone stimulated Src-AR association (AR co-immunoprecipitated by anti-Src antibodies)” value is “only slightly affected”. Moreover, the “hormone stimulated receptor-Src association (co-immunoprecipitation by anti-Src antibodies)” value with ER association with Src (setting [8]) is “only slightly affected”. Further, in the data set on Cyclin D1 [1] (1 nM peptide with 10 nM R1881, 6 hrs, MCF-7 and LNCaP), the “Cyclin D induction by R1881” value was “only partially reduces”. Also, the “Cyclin D induction by estrogen” value in the data set with Cyclin D1 [2] (1 nM peptide with 10 nM 17β estradiol, 6 hrs) is listed as “a little effect”. For the same compound, in the data set with androgen receptor (setting [7]), the “transcriptional activity of AR (luciferase reporter)” value is on record as “neither the SH3 peptide nor the shuffled sequence of peptide SEQ. ID NO.1 affect”.

As for `C[C@]12CC[C@@H]3c4ccc(O)cc4C[C@@H](CCCCCCCCC[S+]([O-])CCCC(F)(F)C(F)(F)F)[C@H]3[C@@H]1CC[C@@H]2O` (stereo partly shown) [ICI 182,780], the “residual BrdU incorporation” value was determined as 7% in the data set on MCF-7 cells [4] (1000-fold excess with 10 nM 17β estradiol, E2 alone 61%, untreated 8%); 7% in the data set on LNCaP cells [5] (10 μM with 100 ng/ml EGF, EGF alone 21%, untreated 8%); 9% in the data set on MCF-7 cells [6] (10 μM with 100 ng/ml EGF, EGF alone 36%, untreated 6%). For the same compound, the “association between ER and Src (co-immunoprecipitation by anti-Src antibodies)” value at ER association with Src (1000-fold excess with 10 nM 17β estradiol) is recorded as “abolished”.

As to “EGF: highly purified EGF, growth factor used as stimulus”, the BrdU incorporation stood at 21% with LNCaP cells [5] (100 ng/ml EGF alone, untreated cells 8%) and 36% with MCF-7 cells [6] (100 ng/ml EGF alone, untreated cells 6%).

In the data set with LNCaP cells [3] (10 nM R1881 alone, 24 hrs, untreated cells 20%, averaged from six assays), `C[C@]1(O)CC[C@H]2[C@@H]3CCC4=CC(=O)CCC4=C3C=C[C@@]21C` [R1881] returned a BrdU incorporation rate of 54%.

Consider `CC(C)(C)n1nc(-c2ccc(Cl)cc2)c2c(N)ncnc21` [PP2], for which the “hormone stimulated cyclin expression” value with Cyclin D1 [1] (with 10 nM R1881, concentration not given, data not shown) is listed as “abolishes”.

As to `CC(O)(CS(=O)(=O)c1ccc(F)cc1)C(=O)Nc1ccc(C#N)c(C(F)(F)F)c1` (stereo not shown) [Casodex, biclutamide], the “residual BrdU incorporation” value with LNCaP cells [3] (1000-fold excess with 10 nM R1881, 24 hrs) is 21%. Also, at AR association with Src (1000-fold excess with 10 nM R1881, 2 min), the “hormone stimulated Src-AR association (AR co-immunoprecipitated by anti-Src antibodies)” value is on record as “abolished”. The “androgen induced transcription of reporter gene” value with androgen receptor (1000 fold excess with 10 nM R1881, 24 hrs) is “completely inhibits”.

In turn, `C[C@]12CC[C@@H]3c4ccc(O)cc4CC[C@H]3[C@@H]1CC[C@@H]2O` [17β estradiol] returned a BrdU incorporation rate in the data set on MCF-7 cells [4] (10 nM 17β estradiol alone, untreated cells 8%, averaged from six assays) of 61%.

(Values after patent US9919023B2, “Anti-androgen peptides and uses thereof in cancer therapy” (Cancer Research Technology Limited, priority 2007, dated 2018).)
